Results on 14 compounds are retold here after patent publication US6511978B1, “Pyrrole derivatives useful for farnesyl transferase inhibitors and their preparations” (LG Life Sciences, Ltd., priority 1999, dated 2003).

Test [1] concerns the target T1, Ras farnesyl transferase (Homo sapiens, UniProt P49354+P49356).
T1 construct: made in house
Nature of the test: Ras farnesyl transferase enzyme inhibition, H-Ras substrate. Conditions: H-Ras substrate protein; recombinant farnesyl transferase; 30 minutes at 37° C. The class given is biochemical. From the text: (§1) In the present experiment, the improved Pompliano's method (see: Pompliano et al., Biochemistry, 31, 3800, 1992) was applied. Specifically, Ras farnesyl transferase produced by genetic recombination techniques was used, and fused protein of H-Ras(H-Ras-CVLS) substituted with polybasic lysine domain at C-terminus of K-Ras (see: Korean Patent Appln. No. 97-14409) was used as a substrate after it had been purified according to the known method(see, Chung et al., Biochimica et Biophysica Acta, 1129, 278, 1992).
(§2) The enzyme reaction was performed in 50 μl of 50 mM Sodium HEPES buffer solution containing 25 mM of potassium chloride, 25 mM of magnesium chloride, 10 mM of DTT and 50 μM of zinc chloride. 1.5 μM of Ras substrate protein, 0.15 μM of tritium-farnesylpyrophosphate and 4.5 nM of farnesyl transferase were used. More specifically, in the initial step, farnesyl transferase was added to the above buffer solution, reaction was maintained for 30 minutes at 37° C. and then the reaction was stopped by adding 1 ml of ethanol solution containing 1M HCl. The formed precipitates were adsorbed to GF/B filter using Hopper harvestor(Hopper #FH 225V) for filter-binding, washed with ethanol, and then radioactivity of the dried filter was measured using LKB β counter. Enzyme titer was measured in the unsaturated state of substrate where the concentration of Ras substrate protein and farnesyl transferase have quantitative relationship. The compound according to the present invention dissolved in dimethyl sulfoxide(DMSO) was added to the reaction solution in an amount of less than 5% of the total reaction solution, and then the enzyme inhibitory activity thereof was measured. The enzyme inhibitory activity was represented by percentage of the amount of farnesyl incorporated into the Ras substrate protein in the presence of the test compound to that in the absence of the test compound. IC50 of the test compound was defined as the concentration at which 50% of the enzyme activity was inhibited. To evaluate the selective enzyme inhibitory activity of the compound according to the present invention, inhibitory activity on geranylgeranyl transferase was measured. Geranylgeranyl transferase was purified from bovine brain according to the modified Schaber's method(Schaber et al., J. Biol. Chem. 265, 14701, 1990), and substantially the same experimental procedure as that for farnesyl transferase was performed on geranylgeranyl pyrophosphate and Ras-CVIL substrate protein.

The target of test [2] is T1, Ras farnesyl transferase. In words: Ras farnesyl transferase enzyme inhibition, K-Ras substrate (H-Ras fused with polybasic lysine domain of K-Ras). The class given is biochemical. The conditions noted are these: K-Ras substrate (fused protein of H-Ras with polybasic lysine domain of K-Ras); recombinant farnesyl transferase.
Excerpt: as §1, §2

Test [3] deals with T2, Ras farnesyl transferase (Rattus norvegicus, UniProt Q02293+Q04631).
T2 construct: endogenous in cells; host or cells: Rat2 fibroblasts transformed with C-Harvey-Ras or with the H-Ras/K-Ras polybasic-domain fusion
Nature of the test: In vivo (intracellular) Ras farnesylation inhibition in Rat2 cell line expressing C-Harvey-Ras. The format is cell-based. The conditions noted are these: Rat2 cells expressing C-Harvey-Ras; concentration inhibiting 50% of farnesyl binding; read-out: H-Ras CIC50. Here is the method: (§3) In the present experiment, Rat2 cell line which expresses C-Harvey-Ras protein having transforming activity and Rat2 cell line(Korean patent application No. 97-14409) which is transformed with fused protein of H-Ras substituted with polybasic lysine domain at C-terminus of K-Ras were used. The experiment was performed by the modified Declue's method(Declue. J. E. et al., Cancer Research, 51, 712, 1991) as follows.
(§4) 3×10^5 cells of transformed Rat2 fibroblast cell line were sprayed on 60 mm cell cultivation dish and cultivated for 48 hours in a cell incubator at 37° C. and after 50% or more of density was reached, it was treated with the test compounds. The compound according to the present invention dissolved in dimethylsulfoxide(DMSO) was used. 1% concentration of dimethylsulfoxide was used in both control and test groups. After 4 hours from the treatment with the compound, methionine labeled with 150 μCi of radioactive isotope [^35S] per 1 ml of medium was added and after cultivating for 20 hours, the cells were washed with physiological saline water. The cells were lysed using 1 ml of cold cell lysis buffer solution(50 mM of Sodium HEPES buffer solution containing 5 mM of magnesium chloride, 1 mM of DTT, 1% NP 40, 1 mM of EDTA, 1 mM of PMSF, 2 μM of leupeptin, 2 μM of pepstatin A and 2 μM of antipain) and the supernatant wherein the cells were lysed was obtained by high-velocity centrifugation of 12,000 g×5 minutes. The amount of radioisotope in the supernatant was measured and standardized to obtain a quantitative result in immunoprecipitation reaction and then, Y13-259, a monoclonal antiboby specifically binding to Ras protein(see: Furth, M. E. et al., J. Virol, 43, 294, 1982) was added and reacted for 15 hours at 4° C. Protein A(combined with goat anti-murine immunoglobulin antibody)-agarose suspension was added to the solution and reacted for 1 hour at 4° C. and then, to remove the unspecific binding product, immunoprecipitates were washed with a buffer solution (50 mM Tris chloride buffer solution containing 50 mM of sodium chloride, 0.5% of sodium dioxycholate, 0.5% of NP 40 and 0.1% of SDS). The precipitates were added to a buffer solution for electrophoresis and boiled and then, electrophoresis was performed using 13.5% of SDS polyacrylamide gel. After electrophoresis, the gel was fixed and dried. Then, the gel was exposed to X-ray film, developed and printed. From the result of the experiment, intensities of band of protein combined with or without farnesyl of Ras protein was measured, and the concentration of the test compound inhibiting 50% of farnesyl binding was defined as CIC50, an in vivo Ras farnesyl transferase inhibitory activity. IC50 means the data from Experimental 1 and CIC50 means the data from Experimental 2.

The target of test [4] is T2, Ras farnesyl transferase. In words: In vivo (intracellular) Ras farnesylation inhibition in Rat2 cell line transformed with H-Ras fused with polybasic lysine domain of K-Ras. The class given is cell-based. The conditions noted are these: Rat2 cells transformed with H-Ras/K-Ras polybasic domain fused protein; concentration inhibiting 50% of farnesyl binding; read-out: K-Ras CIC50. The protocol: as §3, §4

Each structure is given as a SMILES string.

For the compound `O=[N+]([O-])c1cn(Cc2cncn2CCc2cccc3ccccc23)cc1-c1cccc2ccccc12` [Example 46, 1-[1-(naphthalen-1-ylethyl)-1H-imidazol-5-ylmethyl]-4-(naphthalen-1-yl)-3-nitro-1H-pyrrole], the IC50 at Ras farnesyl transferase [1] is less than 7 nM; on Ras farnesyl transferase [2] it was less than 6 nM; at Ras farnesyl transferase [3], greater than 50 nM; at Ras farnesyl transferase [4] it was greater than 10000 nM.

Consider `COc1cccc(CCn2cncc2Cn2cc(-c3cccc4ccccc34)c([N+](=O)[O-])c2)c1` [Example 45, 1-[1-(3-methoxyphenethyl)-1H-imidazol-5-ylmethyl]-4-(naphthalen-1-yl)-3-nitro-1H-pyrrole], for which the IC50 on Ras farnesyl transferase [1] was less than 16 nM; on Ras farnesyl transferase [2] it was less than 16 nM; at Ras farnesyl transferase [3], less than 25 nM; at Ras farnesyl transferase [4], greater than 10000 nM.

Take `Cc1ncn(Cc2ccc3ccccc3c2)c1Cn1cc(C(=O)N2CCN(C)CC2)c(-c2cc(Cl)cc3ccccc23)c1` [Example 54, 4-(3-chloronaphthalen-1-yl)-1-[4-methyl-1-(naphthalen-2-yl)methyl-1H-imidazol-5-ylmethyl]-3-(4-methylpiperazin-1-yl)carbonyl-1H-pyrrole]: the IC50 on Ras farnesyl transferase [1] is less than 10 nM; on Ras farnesyl transferase [2], less than 30 nM; at Ras farnesyl transferase [3] it was less than 10 nM; on Ras farnesyl transferase [4], greater than 10000 nM.

On to `COCCN(C)C(=O)c1cn(Cc2cncn2CCCN2CCOCC2)cc1-c1cccc2ccccc12` [Example 9, 3-[N-(2-methoxyethyl)-N-methyl]carbamoyl-1-{1-[3-(morpholin-4-yl)propyl]-1H-imidazol-5-yl}methyl-4-(naphthalen-1-yl)-1H-pyrrole], for which the IC50 at Ras farnesyl transferase [1] is less than 10 nM; on Ras farnesyl transferase [2] it was less than 10 nM; on Ras farnesyl transferase [3], less than 25 nM; on Ras farnesyl transferase [4] it was 10000 to 50000 nM.

Take `COc1ccc(CCn2cncc2Cn2cc(-c3cccc4ccccc34)c([N+](=O)[O-])c2)cc1` [Example 44, 1-[1-(4-methoxyphenethyl)-1H-imidazol-5-ylmethyl]-4-(naphthalen-1-yl)-3-nitro-1H-pyrrole]: the IC50 at Ras farnesyl transferase [1] was less than 11 nM; on Ras farnesyl transferase [2] it was less than 15 nM; on Ras farnesyl transferase [3] it was less than 25 nM; at Ras farnesyl transferase [4], greater than 10000 nM.

For `Cc1ncn(Cc2ccc3ccccc3c2)c1Cn1cc(C(=O)N2CCN(C)CC2)c(-c2cc(Br)cc3ccccc23)c1` [Example 53, 4-(3-bromonaphthalen-1-yl)-1-[4-methyl-1-(naphthalen-2-yl)methyl-1H-imidazol-5-ylmethyl]-3-(4-methylpiperazin-1-yl)carbonyl-1H-pyrrole], the IC50 is less than 10 nM on Ras farnesyl transferase [1], less than 30 nM at Ras farnesyl transferase [2], less than 10 nM at Ras farnesyl transferase [3] and greater than 10000 nM at Ras farnesyl transferase [4].

With `COCCN(C)C(=O)c1cn(Cc2c(C)ncn2CCCOCc2ccccc2Cl)cc1-c1cccc2ccccc12` [Example 32, 1-{1-[3-(2-chlorobenzyloxy)propyl]-4-methyl-1H-imidazol-5-ylmethyl}-3-[N-(2-methoxyethyl)-N-methyl]carbamoyl-4-(naphthalen-1-yl)-1H-pyrrole], the IC50 on Ras farnesyl transferase [1] was less than 6 nM; at Ras farnesyl transferase [2], less than 15 nM; at Ras farnesyl transferase [3], less than 6.25 nM; on Ras farnesyl transferase [4], greater than 10000 nM.

Regarding `Cc1ncn(CCCOCc2ccccc2Cl)c1Cn1cc(C(=O)N2CCN(C)CC2)c(-c2cccc3ccccc23)c1` [Example 31, 1-{1-[3-(2-chlorobenzyloxy)propyl]-4-methyl-1H-imidazol-5-ylmethyl}-3-(4-methylpiperazin-1-yl)carbonyl-4-(naphthalen-1-yl)-1H-pyrrole], the IC50 is less than 3.2 nM at Ras farnesyl transferase [1], less than 2.1 nM on Ras farnesyl transferase [2], less than 6.25 nM at Ras farnesyl transferase [3] and less than 10000 nM at Ras farnesyl transferase [4].

`COc1ccccc1CCn1c(Cn2cc(C(=O)N3CCN(C)CC3)c(-c3cccc4ccccc34)c2)cnc1C` [Example 26, 1-[1-(2-methoxyphenethyl)-2-methyl-1H-imidazol-5-ylmethyl]-3-(4-methylpiperazin-1-yl)carbonyl-4-(naphthalen-1-yl)-1H-pyrrole]: the IC50 at Ras farnesyl transferase [1] is less than 2 nM; at Ras farnesyl transferase [2], less than 6.5 nM; at Ras farnesyl transferase [3] it was less than 25 nM; at Ras farnesyl transferase [4], greater than 10000 nM.

As for `O=[N+]([O-])c1cn(Cc2cncn2CCc2cccc(Br)c2)cc1-c1cccc2ccccc12` [Example 43, 1-[1-(3-bromophenethyl)-1H-imidazol-5-ylmethyl]-4-(naphthalen-1-yl)-3-nitro-1H-pyrrole], the IC50 at Ras farnesyl transferase [1] is less than 3 nM; at Ras farnesyl transferase [2] it was less than 13 nM; at Ras farnesyl transferase [3], greater than 50 nM; on Ras farnesyl transferase [4] it was greater than 10000 nM.

`CN1CCN(C(=O)c2cn(Cc3c(I)ncn3Cc3ccc4c(c3)OCO4)cc2-c2cccc3ccccc23)CC1` [Example 20, 1-[4-iodo-1-(3,4-methylenedioxybenzyl)-1H-imidazol-5-ylmethyl]-3-(4-methylpiperazin-1-yl)carbonyl-4-(naphthalen-1-yl)-1H-pyrrole]: the IC50 on Ras farnesyl transferase [1] was less than 3.5 nM; at Ras farnesyl transferase [2] it was less than 18 nM; on Ras farnesyl transferase [3], greater than 25 nM; at Ras farnesyl transferase [4], greater than 10000 nM.

Regarding `CN1CCN(C(=O)c2cn(Cc3cncn3Cc3ccco3)cc2-c2cccc3ccccc23)CC1` [Example 12, 1-[1-(furan-2-yl)methyl-1H-imidazol-5-yl]methyl-3-(4-methylpiperazin-1-yl)carbonyl-4-(naphthalen-1-yl)-1H-pyrrole], the IC50 at Ras farnesyl transferase [1] is less than 10 nM; at Ras farnesyl transferase [2] it was less than 100 nM; on Ras farnesyl transferase [3], greater than 25 nM; at Ras farnesyl transferase [4] it was 10000 to 50000 nM.

Consider `CN1CCN(C(=O)c2cn(Cc3c(N)ncn3Cc3ccc4c(c3)OCO4)cc2-c2cccc3ccccc23)CC1` [Example 22, 1-[4-amino-1-(3,4-methylenedioxybenzyl)-1H-imidazol-5-ylmethyl]-3-(4-methylpiperazin-1-yl)carbonyl-4-(naphthalen-1-yl)-1H-pyrrole], for which the IC50 is less than 2.7 nM on Ras farnesyl transferase [1], less than 30 nM at Ras farnesyl transferase [2], greater than 25 nM at Ras farnesyl transferase [3] and greater than 10000 nM on Ras farnesyl transferase [4].

With `O=C(c1cn(Cc2cncn2CCCOCc2ccccc2)cc1-c1cccc2ccccc12)N1CCOCC1` [Example 2, 1-[1-(3-benzyloxypropyl)-1H-imidazol-5-yl]methyl-3-(morpholin-4-yl)carbonyl-4-(naphthalen-1-yl)-1H-pyrrole], the IC50 is less than 10 nM on Ras farnesyl transferase [1], less than 10 nM on Ras farnesyl transferase [2], less than 25 nM at Ras farnesyl transferase [3] and 10000 to 50000 nM on Ras farnesyl transferase [4].
